Test system: Wakin goldfish
Assay: Toxicity to fish, plant waste water test method (JIS-K-0102-1964)
Type: in vivo
Protocol: The test was carried out according to plant waste water test method (JIS-K-0102-1964). Wakin goldfish was used as the subject.
*A concentration at which half the number of the subjects died within 48
hours. The higher the number of ppm., the lower the toxicity to fish.

Benzalkonium chloride
TLM (concentration at which half the number of the subjects died within 48 hours): 0.87 ppm

Source: patent US3932492A, “Process for preparing new amidine compounds” (Kao Soap Co., Ltd., priority 1973, dated 1976)
